# Measured values from publication PMC9653409, “Generative deep learning enables the discovery of a potent and selective RIPK1 inhibitor” (Nature Communications, 2022).
# Where two headings read alike, the source gives them in different places.
# Key:
# Experiment in all cases: Kinase inhibitory activity profiling of RI-962@10 µM (406 kinases, Eurofins)
# Type in all cases: biochemical
# [1] = target: panel of human kinases (kinase named in endpoint) (Homo sapiens, UniProt P04049); conditions: 10 µM; read-out: Activity (%), c-RAF(h)
# Outline: (§1)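 Radiometric filter-binding kinase assays: enzyme preincubated 15 min with compound in 8 mM MOPS pH 7.0, 0.2 mM EDTA, 250 μM peptide substrate, 10 mM magnesium acetate, 10 μM [γ-33P]-ATP. Reaction started with Mg/ATP, run 40 min at room temperature, stopped with phosphoric acid; 33P incorporation read by scintillation counting. Other kinases by similar protocols.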
# [2] = target: panel of human kinases (kinase named in endpoint) (Homo sapiens, UniProt O14578); conditions: 10 µM; read-out: Activity (%), CRIK(h)
# Outline: as §1
# [3] = target: panel of human kinases (kinase named in endpoint) (Homo sapiens, UniProt Q52WX2); conditions: 10 µM; read-out: Activity (%), SBK1(h)
# Outline: as §1
# [4] = target: panel of human kinases (kinase named in endpoint) (Homo sapiens, UniProt O00238); conditions: 10 µM; read-out: Activity (%), ALK6(h)
# Outline: as §1
# [5] = target: panel of human kinases (kinase named in endpoint) (Homo sapiens, UniProt P07949, V804M); conditions: 10 µM; read-out: Activity (%), Ret(V804M)(h)
# Outline: as §1
# [6] = target: panel of human kinases (kinase named in endpoint) (Homo sapiens, UniProt P24941); conditions: 10 µM
# Outline: as §1
# [7] = target: panel of human kinases (kinase named in endpoint) (Homo sapiens, UniProt Q12866); conditions: 10 µM; read-out: Activity (%), Mer(h)
# Outline: as §1
# [8] = target: panel of human kinases (kinase named in endpoint) (Homo sapiens, UniProt Q9P2K8); conditions: 10 µM; read-out: Activity (%), GCN2(h)
# Outline: as §1
# [9] = target: panel of human kinases (kinase named in endpoint) (Homo sapiens, UniProt O00311); conditions: 10 µM; read-out: Activity (%), Cdc7/cyclinB1(h)
# Outline: as §1
# [10] = target: panel of human kinases (kinase named in endpoint) (Homo sapiens, UniProt O75116); conditions: 10 µM; read-out: Activity (%), ROCK-II(h)
# Outline: as §1
# [11] = target: panel of human kinases (kinase named in endpoint) (Homo sapiens, UniProt P27448); conditions: 10 µM; read-out: Activity (%), MARK3(h)
# Outline: as §1
# [12] = target: panel of human kinases (kinase named in endpoint) (Homo sapiens, UniProt P19784); conditions: 10 µM; read-out: Activity (%), CK2α2(h)
# Outline: as §1
# [13] = target: panel of human kinases (kinase named in endpoint) (Homo sapiens, UniProt P23443); conditions: 10 µM; read-out: Activity (%), p70S6K(h)
# Outline: as §1
# [14] = target: panel of human kinases (kinase named in endpoint) (Homo sapiens, UniProt Q9H4B4); conditions: 10 µM; read-out: Activity (%), Plk3(h)
# Outline: as §1
# [15] = target: panel of human kinases (kinase named in endpoint) (Homo sapiens, UniProt Q8WTQ7); conditions: 10 µM; read-out: Activity (%), GRK7(h)
# Outline: as §1
# [16] = target: panel of human kinases (kinase named in endpoint) (Homo sapiens, UniProt Q8TD19); conditions: 10 µM; read-out: Activity (%), NEK9(h)
# Outline: as §1
# [17] = target: panel of human kinases (kinase named in endpoint) (Homo sapiens, UniProt P78527); conditions: 10 µM; read-out: Activity (%), DNA-PK(h)
# Outline: as §1
# [18] = target: panel of human kinases (kinase named in endpoint) (Homo sapiens, UniProt Q86UX6); conditions: 10 µM; read-out: Activity (%), STK32C(h)
# Outline: as §1
# [19] = target: panel of human kinases (kinase named in endpoint) (Homo sapiens, UniProt P49759); conditions: 10 µM; read-out: Activity (%), CLK1(h)
# Outline: as §1
# [20] = target: panel of human kinases (kinase named in endpoint) (Homo sapiens, UniProt Q9NWZ3); conditions: 10 µM; read-out: Activity (%), IRAK4(h)
# Outline: as §1
# [21] = target: panel of human kinases (kinase named in endpoint) (Homo sapiens, UniProt Q9UL54); conditions: 10 µM; read-out: Activity (%), TAO2(h)
# Outline: as §1
# [22] = target: panel of human kinases (kinase named in endpoint) (Homo sapiens, UniProt Q96RG2); conditions: 10 µM; read-out: Activity (%), PASK(h)
# Outline: as §1
# [23] = target: panel of human kinases (kinase named in endpoint) (Homo sapiens, UniProt O00418); conditions: 10 µM; read-out: Activity (%), eEF-2K(h)
# Outline: as §1
# [24] = target: panel of human kinases (kinase named in endpoint) (Homo sapiens, UniProt Q6P2M8); conditions: 10 µM; read-out: Activity (%), CaMKIß(h)
# Outline: as §1
# [25] = target: panel of human kinases (kinase named in endpoint) (Homo sapiens, UniProt Q04771); conditions: 10 µM; read-out: Activity (%), ALK2(h)
# Outline: as §1
# [26] = target: panel of human kinases (kinase named in endpoint) (Homo sapiens, UniProt Q8N5S9); conditions: 10 µM; read-out: Activity (%), CaMKK1(h)
# Outline: as §1
# Sequence of panel of human kinases (kinase named in endpoint) (Homo sapiens, UniProt P23443) (P23443 whole entry): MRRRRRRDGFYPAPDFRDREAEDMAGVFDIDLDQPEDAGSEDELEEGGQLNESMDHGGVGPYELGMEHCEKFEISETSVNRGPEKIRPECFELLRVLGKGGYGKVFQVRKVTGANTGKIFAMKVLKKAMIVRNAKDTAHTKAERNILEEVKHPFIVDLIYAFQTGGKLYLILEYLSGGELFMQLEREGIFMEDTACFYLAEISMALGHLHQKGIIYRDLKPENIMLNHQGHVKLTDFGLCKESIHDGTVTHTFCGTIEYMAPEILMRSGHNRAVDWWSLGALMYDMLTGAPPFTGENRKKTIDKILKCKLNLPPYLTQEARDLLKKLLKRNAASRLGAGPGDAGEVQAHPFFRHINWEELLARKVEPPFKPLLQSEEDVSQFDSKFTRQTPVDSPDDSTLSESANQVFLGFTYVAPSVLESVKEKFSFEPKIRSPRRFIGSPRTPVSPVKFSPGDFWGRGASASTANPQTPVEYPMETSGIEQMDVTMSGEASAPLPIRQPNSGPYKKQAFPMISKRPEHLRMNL
# Sequence of panel of human kinases (kinase named in endpoint) (Homo sapiens, UniProt P19784) (P19784 whole entry): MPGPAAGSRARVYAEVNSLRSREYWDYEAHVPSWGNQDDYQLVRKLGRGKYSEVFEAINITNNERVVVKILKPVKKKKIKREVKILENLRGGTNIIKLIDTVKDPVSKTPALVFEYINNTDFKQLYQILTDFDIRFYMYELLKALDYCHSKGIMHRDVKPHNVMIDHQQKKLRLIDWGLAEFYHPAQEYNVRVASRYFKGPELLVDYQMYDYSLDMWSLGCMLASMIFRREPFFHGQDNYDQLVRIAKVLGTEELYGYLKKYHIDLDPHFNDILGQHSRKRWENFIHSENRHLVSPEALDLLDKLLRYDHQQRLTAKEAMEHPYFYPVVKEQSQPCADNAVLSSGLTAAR
# Sequence of panel of human kinases (kinase named in endpoint) (Homo sapiens, UniProt P78527) (P78527 whole entry): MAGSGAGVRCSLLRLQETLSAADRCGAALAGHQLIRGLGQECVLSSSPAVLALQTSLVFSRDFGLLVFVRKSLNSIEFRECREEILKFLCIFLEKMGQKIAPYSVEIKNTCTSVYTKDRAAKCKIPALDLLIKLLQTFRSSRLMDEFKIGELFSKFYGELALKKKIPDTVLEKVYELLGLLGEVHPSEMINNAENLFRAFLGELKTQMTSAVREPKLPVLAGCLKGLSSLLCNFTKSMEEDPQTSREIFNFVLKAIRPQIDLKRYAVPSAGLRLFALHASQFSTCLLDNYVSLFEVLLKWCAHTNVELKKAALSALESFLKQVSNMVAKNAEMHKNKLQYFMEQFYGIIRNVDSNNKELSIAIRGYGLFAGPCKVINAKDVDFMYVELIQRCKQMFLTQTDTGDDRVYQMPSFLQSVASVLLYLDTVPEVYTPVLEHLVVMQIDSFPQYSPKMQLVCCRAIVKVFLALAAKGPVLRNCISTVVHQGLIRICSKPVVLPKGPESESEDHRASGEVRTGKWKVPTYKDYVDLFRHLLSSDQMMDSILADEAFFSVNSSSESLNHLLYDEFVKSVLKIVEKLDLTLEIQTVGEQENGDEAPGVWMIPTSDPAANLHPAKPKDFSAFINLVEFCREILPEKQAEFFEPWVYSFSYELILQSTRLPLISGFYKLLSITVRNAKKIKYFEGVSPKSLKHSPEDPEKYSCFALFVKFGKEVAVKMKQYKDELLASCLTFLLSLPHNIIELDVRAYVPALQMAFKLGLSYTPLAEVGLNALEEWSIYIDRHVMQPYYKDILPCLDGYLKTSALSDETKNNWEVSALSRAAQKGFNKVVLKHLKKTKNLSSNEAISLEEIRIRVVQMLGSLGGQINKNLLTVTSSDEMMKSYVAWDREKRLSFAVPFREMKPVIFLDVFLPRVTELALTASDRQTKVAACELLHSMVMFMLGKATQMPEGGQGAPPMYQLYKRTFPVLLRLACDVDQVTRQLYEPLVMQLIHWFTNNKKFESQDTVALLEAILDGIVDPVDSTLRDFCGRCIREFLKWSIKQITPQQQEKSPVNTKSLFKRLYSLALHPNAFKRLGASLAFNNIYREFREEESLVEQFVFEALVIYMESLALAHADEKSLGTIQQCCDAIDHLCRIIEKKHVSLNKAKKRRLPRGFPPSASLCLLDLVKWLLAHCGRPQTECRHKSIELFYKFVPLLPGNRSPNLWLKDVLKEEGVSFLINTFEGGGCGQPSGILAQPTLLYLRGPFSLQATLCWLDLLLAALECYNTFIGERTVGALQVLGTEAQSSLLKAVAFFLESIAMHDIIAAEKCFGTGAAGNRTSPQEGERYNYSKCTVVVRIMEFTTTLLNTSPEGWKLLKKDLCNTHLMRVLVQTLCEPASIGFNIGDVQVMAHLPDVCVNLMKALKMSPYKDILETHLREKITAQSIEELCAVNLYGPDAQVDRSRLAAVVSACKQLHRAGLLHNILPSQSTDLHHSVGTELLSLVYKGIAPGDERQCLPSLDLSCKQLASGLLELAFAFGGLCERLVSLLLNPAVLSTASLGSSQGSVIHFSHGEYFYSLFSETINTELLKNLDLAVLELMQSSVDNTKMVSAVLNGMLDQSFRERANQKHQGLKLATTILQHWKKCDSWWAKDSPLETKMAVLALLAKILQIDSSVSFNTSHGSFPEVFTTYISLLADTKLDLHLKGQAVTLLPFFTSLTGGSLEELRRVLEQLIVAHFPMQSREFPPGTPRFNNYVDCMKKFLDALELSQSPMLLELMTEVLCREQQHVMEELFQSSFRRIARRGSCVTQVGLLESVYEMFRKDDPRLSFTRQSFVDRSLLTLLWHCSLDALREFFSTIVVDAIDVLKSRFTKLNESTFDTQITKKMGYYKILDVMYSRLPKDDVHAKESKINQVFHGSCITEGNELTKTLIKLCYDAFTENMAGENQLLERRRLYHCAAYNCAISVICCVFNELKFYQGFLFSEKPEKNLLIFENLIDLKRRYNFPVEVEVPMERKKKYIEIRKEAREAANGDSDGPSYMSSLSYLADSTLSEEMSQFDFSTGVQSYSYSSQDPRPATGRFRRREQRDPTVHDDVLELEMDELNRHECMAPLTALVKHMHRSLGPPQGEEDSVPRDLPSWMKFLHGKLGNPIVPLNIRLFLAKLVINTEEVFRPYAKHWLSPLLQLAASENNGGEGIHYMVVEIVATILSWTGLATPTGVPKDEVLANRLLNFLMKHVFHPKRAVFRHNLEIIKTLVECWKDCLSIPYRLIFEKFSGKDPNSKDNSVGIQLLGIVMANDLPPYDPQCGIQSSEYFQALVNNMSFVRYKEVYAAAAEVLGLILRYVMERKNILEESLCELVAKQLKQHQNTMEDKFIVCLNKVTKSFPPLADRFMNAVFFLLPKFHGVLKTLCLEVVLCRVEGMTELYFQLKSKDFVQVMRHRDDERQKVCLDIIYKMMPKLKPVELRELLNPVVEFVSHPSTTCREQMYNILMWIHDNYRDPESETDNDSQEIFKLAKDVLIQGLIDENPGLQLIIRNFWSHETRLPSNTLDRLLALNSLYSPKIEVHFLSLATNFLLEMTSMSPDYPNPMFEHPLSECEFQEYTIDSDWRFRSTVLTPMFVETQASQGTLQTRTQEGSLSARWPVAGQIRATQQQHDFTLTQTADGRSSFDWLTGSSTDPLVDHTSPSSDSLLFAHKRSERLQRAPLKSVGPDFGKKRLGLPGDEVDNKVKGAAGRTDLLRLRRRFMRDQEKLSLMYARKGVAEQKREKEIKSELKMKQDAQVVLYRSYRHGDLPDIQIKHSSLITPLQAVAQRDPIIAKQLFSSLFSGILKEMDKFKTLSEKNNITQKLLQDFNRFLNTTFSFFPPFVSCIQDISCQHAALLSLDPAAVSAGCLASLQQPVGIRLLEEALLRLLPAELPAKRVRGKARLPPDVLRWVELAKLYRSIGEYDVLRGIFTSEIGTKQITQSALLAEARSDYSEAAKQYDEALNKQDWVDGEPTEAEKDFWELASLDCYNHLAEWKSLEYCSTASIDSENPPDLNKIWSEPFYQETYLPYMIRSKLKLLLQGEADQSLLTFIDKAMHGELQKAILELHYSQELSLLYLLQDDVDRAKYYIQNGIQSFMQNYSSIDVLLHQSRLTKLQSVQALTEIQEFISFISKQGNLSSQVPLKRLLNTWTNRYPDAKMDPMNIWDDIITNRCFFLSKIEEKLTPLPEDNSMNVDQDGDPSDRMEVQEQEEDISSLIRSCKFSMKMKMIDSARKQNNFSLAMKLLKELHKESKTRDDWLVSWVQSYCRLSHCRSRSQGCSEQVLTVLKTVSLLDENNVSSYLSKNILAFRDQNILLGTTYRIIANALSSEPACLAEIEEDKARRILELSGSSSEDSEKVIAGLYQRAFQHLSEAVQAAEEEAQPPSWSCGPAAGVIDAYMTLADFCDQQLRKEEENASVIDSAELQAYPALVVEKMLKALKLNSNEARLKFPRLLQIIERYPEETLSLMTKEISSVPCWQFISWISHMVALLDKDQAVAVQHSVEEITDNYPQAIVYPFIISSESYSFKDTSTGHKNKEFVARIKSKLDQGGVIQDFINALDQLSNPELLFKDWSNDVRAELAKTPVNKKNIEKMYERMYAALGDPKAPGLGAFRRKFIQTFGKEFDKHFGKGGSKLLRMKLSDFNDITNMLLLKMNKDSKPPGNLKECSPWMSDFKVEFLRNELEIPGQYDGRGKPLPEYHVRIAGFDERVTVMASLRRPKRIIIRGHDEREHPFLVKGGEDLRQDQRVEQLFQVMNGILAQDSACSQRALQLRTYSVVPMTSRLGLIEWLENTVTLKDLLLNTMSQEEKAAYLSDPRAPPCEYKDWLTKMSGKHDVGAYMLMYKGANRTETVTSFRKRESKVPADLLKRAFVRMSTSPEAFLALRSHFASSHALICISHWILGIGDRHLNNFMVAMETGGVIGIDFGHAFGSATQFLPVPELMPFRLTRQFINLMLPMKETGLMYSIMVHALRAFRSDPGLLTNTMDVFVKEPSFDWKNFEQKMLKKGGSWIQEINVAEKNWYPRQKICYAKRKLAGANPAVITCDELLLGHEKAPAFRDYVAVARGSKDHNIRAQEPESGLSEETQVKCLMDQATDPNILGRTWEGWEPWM
smiles,measurement,setting,value
CC(C)C(=O)Nc1nc2cc(-c3ccc4c(c3)c(C(=O)NC(C)c3ccccc3)cn4C)ccn2n1 (stereo not drawn) [RI-962],activity at 10 µM,[1],114%
same,activity at 10 µM,[2],101%
same,activity at 10 µM,[3],112%
same,activity at 10 µM,[4],95%
same,activity at 10 µM,[5],115%
same,activity at 10 µM,"[6]; read-out: Activity (%), CDK2/cyclinA(h)",122%
same,activity at 10 µM,"[6]; read-out: Activity (%), CDK2/cyclinE(h)",92%
same,activity at 10 µM,[7],91%
same,activity at 10 µM,[8],76%
same,activity at 10 µM,[9],53%
same,activity at 10 µM,[10],90%
same,activity at 10 µM,[11],84%
same,activity at 10 µM,[12],85%
same,activity at 10 µM,[13],106%
same,activity at 10 µM,[14],88%
same,activity at 10 µM,[15],60%
same,activity at 10 µM,[16],85%
same,activity at 10 µM,[17],100%
same,activity at 10 µM,[18],76%
same,activity at 10 µM,[19],109%
same,activity at 10 µM,[20],79%
same,activity at 10 µM,[21],92%
same,activity at 10 µM,[22],71%
same,activity at 10 µM,[23],112%
same,activity at 10 µM,[24],100%
same,activity at 10 µM,[25],104%
same,activity at 10 µM,[26],56%
